Drawing on patent US20260049088A1, “TRICYCLIC HETEROCYCLIC DERIVATIVES, COMPOSITIONS AND USES THEREOF” (Danatlas Pharmaceuticals Co., Ltd., priority 2023, published 2026), this text covers IC50 for 23 compounds.

SMILES strings stand for the structures. pIC50: −log10 of the molar value.

The test deals with T1, hPARG (Homo sapiens, UniProt Q86W56).
T1 construct: made in house; host or cells: E. coli
T1 sequence (Q86W56 whole entry): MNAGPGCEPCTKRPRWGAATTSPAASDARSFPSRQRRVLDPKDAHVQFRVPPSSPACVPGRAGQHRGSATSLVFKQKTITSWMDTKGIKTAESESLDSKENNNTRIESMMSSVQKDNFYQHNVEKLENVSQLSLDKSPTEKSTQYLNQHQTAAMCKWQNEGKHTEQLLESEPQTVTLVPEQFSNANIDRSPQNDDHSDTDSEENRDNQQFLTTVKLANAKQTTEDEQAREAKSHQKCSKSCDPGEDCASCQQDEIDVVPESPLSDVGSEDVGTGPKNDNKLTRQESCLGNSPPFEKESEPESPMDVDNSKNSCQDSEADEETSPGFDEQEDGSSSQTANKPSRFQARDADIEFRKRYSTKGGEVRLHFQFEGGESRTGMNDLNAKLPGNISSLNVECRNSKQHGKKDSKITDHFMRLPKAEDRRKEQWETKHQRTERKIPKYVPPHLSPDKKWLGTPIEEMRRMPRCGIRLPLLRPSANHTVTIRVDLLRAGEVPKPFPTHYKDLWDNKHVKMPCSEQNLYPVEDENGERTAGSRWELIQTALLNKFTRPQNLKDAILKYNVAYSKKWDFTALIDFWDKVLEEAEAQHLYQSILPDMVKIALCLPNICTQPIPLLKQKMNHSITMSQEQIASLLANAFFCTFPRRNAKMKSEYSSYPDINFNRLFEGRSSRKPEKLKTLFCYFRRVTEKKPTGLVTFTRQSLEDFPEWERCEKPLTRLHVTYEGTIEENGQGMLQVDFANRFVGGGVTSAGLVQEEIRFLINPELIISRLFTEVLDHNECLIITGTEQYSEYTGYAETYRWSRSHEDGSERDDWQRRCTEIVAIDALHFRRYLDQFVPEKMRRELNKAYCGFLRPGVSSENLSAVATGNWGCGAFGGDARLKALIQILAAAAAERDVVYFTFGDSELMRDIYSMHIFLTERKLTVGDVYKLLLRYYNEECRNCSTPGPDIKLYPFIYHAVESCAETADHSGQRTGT
In words: PARG enzymatic activity assay (HTRF). The format is biochemical. The conditions noted are these: C-terminal His6-tag hPARG 65 pM, biotinylated-NAD ribosylated PARP1 substrate 8 nM. As to the method:
HTRF assay was used to measure the ability of compounds to inhibit the activity of […] in vitro. C-terminal His6—tag PARG expressed in E. coli was purified and stored at −80° C. in aliquots. Assay measurements were performed with 1×buffer comprising 50 mM Tris pH 7.4, 0.1 mg/mL BSA, 3 mM EDTA, 0.4 mM EGTA, 1 mM DTT, 50 mM KCl and 0.01% Tween 20. Compounds dissolved in DMSO were plated into a 384-well assay plate (PerkinElmer, Catalog #: 6008280) in duplicate using a dispenser (Labcyte, Echo 665), and tested on a 10-point 4-fold serial dilution. Add 5 μL Enzyme mix [hPARG (C-terminal His6—tag, 4.2 μM), 65 pM final] to the test wells. The plates were covered and left to incubate for 60 minutes at RT before the addition of 5 μL substrate mix [biotinylated-NAD ribosylated PARP1 (6.1 μM), 8 nM final] to initiate reaction. After incubating 10 minutes at RT, add 2.5 μL Streptavidin-Eu cryptate (Cisbio, Catalog #: 610SAKLA) and 2.5 μL Mab anti 6HIS-XL665 (Cisbio, Catalog #: 61HISXLA) to the plate, and incubate for 60 minutes at RT. Read on a multimode plate reader (PerkinElmer, Envision 2015) in time-resolved fluorescence (TRF) mode, with excitation at 337 nm and emission at both 620 nm and 665 nm. Average HTRF signal of high control (Wells with 1% DMSO) was calculated and as Vehicle Control (VC). Average HTRF signal of low control (no Enzyme) was calculated and as Positive control (PC).
IC50 values were determined by fitting the data to the standard 4 parameters with Hill Slope using GraphPad Prism software.
In the case of `C[C@@H]1CN(c2ncnc3c2c2ccc(S(=O)(=O)NC4(C#N)CC4)cc2n3-c2nnc(C(F)F)s2)C[C@H](C)N1C` [Example 41, N-(1-Cyanocyclopropyl)-9-(5-(difluoromethyl)-1,3,4-thiadiazol-2-yl)-4-((3R,5S)-3,4,5-trimethylpiperazin-1-yl)-9H-pyrimido[4,5-b]indole-7-sulfonamide], the pIC50 – broadly, −log10 of the IC50, conventionally taken in molar units – was at least 7.00. Under `N#CC1(NS(=O)(=O)c2ccc3c4c(N5CCn6cnnc6C5)ncnc4n(-c4nnc(C(F)F)s4)c3c2)CC1` [Example 46, N-(1-Cyanocyclopropyl)-9-(5-(difluoromethyl)-1,3,4-thiadiazol-2-yl)-4-(5,6-dihydro-[1,2,4]triazolo[4,3-a]pyrazin-7(8H)-yl)-9H-pyrimido[4,5-b]indole-7-sulfonamide] stands at least 7.00.

As to `CCN(CC)[C@@H]1CCN(c2ncnc3c2c2ccc(S(=O)(=O)NC4(C#N)CC4)cc2n3-c2nnc(C(F)F)s2)C[C@H]1F` [Example 35, N-(1-Cyanocyclopropyl)-4-((3R,4R)-4-(diethylamino)-3-fluoropiperidin-1-yl)-9-(5-(difluoromethyl)-1,3,4-thiadiazol-2-yl)-9H-pyrimido[4,5-b]indole-7-sulfonamide], the pIC50 is at least 7.00. Under `N#CC1(NS(=O)(=O)c2ccc3c4c(OCCCN5CCOCC5)ncnc4n(-c4nnc(C(F)F)s4)c3c2)CC1` [Example 2, N-(1-Cyanocyclopropyl)-9-(5-(difluoromethyl)-1,3,4-thiadiazol-2-yl)-4-(3-morpholinopropoxy)-9H-pyrimido[4,5-b]indole-7-sulfonamide] stands at least 7.00; under `CN(C)C(=O)COc1ncnc2c1c1ccc(S(=O)(=O)NC3(C#N)CC3)cc1n2-c1nnc(C(F)F)s1` [Example 6, 2-((7-(N-(1-Cyanocyclopropyl)sulfamoyl)-9-(5-(difluoromethyl)-1,3,4-thiadiazol-2-yl)-9H-pyrimido[4,5-b]indol-4-yl)oxy)-N,N-dimethylacetamide], 6.00 to 7.00. The value for `CN(C[C@H]1CC[C@@H](O)CC1)c1ncnc2c1c1ccc(S(=O)(=O)NC3(C#N)CC3)cc1n2-c1nnc(C(F)F)s1` [Example 73, N-(1-Cyanocyclopropyl)-9-(5-(difluoromethyl)-1,3,4-thiadiazol-2-yl)-4-((((1s,4s)-4-hydroxycyclohexyl)methyl)(methyl)amino)-9H-pyrimido[4,5-b]indole-7-sulfonamide] was at least 7.00. Under `CSc1ncnc2c1c1ccc(S(=O)(=O)NC3(C#N)CC3)cc1n2-c1nnc(C(F)F)s1` [Example 25, N-(1-cyanocyclopropyl)-9-(5-(difluoromethyl)-1,3,4-thiadiazol-2-yl)-4-(methylthio)-9H-pyrimido[4,5-b]indole-7-sulfonamide] stands at least 7.00.

For `N#CC1(NS(=O)(=O)c2ccc3c4c(OCCN5CCCS5(=O)=O)ncnc4n(-c4nnc(C(F)F)s4)c3c2)CC1` [Example 91, N-(1-Cyanocyclopropyl)-9-(5-(difluoromethyl)-1,3,4-thiadiazol-2-yl)-4-(2-(1,1-dioxidoisothiazolidin-2-yl)ethoxy)-9H-pyrimido[4,5-b]indole-7-sulfonamide], the negative logarithm of the IC50 (pIC50) was at least 7.00.

Take `CN(Cc1ccncc1)c1ncnc2c1c1ccc(S(=O)(=O)NC3(C#N)CC3)cc1n2-c1nnc(C(F)F)s1` [Example 21, N-(1-Cyanocyclopropyl)-9-(5-(difluoromethyl)-1,3,4-thiadiazol-2-yl)-4-(methyl(pyridin-4-ylmethyl)amino)-9H-pyrimido[4,5-b]indole-7-sulfonamide]: the pIC50 was at least 7.00.

`N#CC1(NS(=O)(=O)c2ccc3c4c(N5CCn6cncc6C5)ncnc4n(-c4nnc(C(F)F)s4)c3c2)CC1` [Example 45, N-(1-Cyanocyclopropyl)-9-(5-(difluoromethyl)-1,3,4-thiadiazol-2-yl)-4-(5,6-dihydroimidazo[1,5-a]pyrazin-7(8H)-yl)-9H-pyrimido[4,5-b]indole-7-sulfonamide] showed a pIC50 of at least 7.00. The value for `COCCSc1ncnc2c1c1ccc(S(=O)(=O)NC3(C#N)CC3)cc1n2-c1nnc(C(F)F)s1` [Example 84, N-(1-Cyanocyclopropyl)-9-(5-(difluoromethyl)-1,3,4-thiadiazol-2-yl)-4-((2-methoxyethyl)thio)-9H-pyrimido[4,5-b]indole-7-sulfonamide] was 6.00 to 7.00. In turn, `CN(CC1COCCO1)c1ncnc2c1c1ccc(S(=O)(=O)NC3(C#N)CC3)cc1n2-c1nnc(C(F)F)s1` (centres unmarked) [Example 69, 4-(((1,4-Dioxan-2-yl)methyl)(methyl)amino)-N-(1-cyanocyclopropyl)-9-(5-(difluoromethyl)-1,3,4-thiadiazol-2-yl)-9H-pyrimido[4,5-b]indole-7-sulfonamide] had a pIC50 of at least 7.00. Under `Cc1cnc2n1CCN(c1ncnc3c1c1ccc(S(=O)(=O)NC4(C#N)CC4)cc1n3-c1nnc(C(F)F)s1)C2` [Example 53, N-(1-Cyanocyclopropyl)-9-(5-(difluoromethyl)-1,3,4-thiadiazol-2-yl)-4-(3-methyl-5,6-dihydroimidazo[1,2-a]pyrazin-7(8H)-yl)-9H-pyrimido[4,5-b]indole-7-sulfonamide] stands at least 7.00; under `Cc1nnc2n1CCN(c1ncnc3c1c1ccc(S(=O)(=O)NC4(C#N)CC4)cc1n3-c1nnc(C(F)F)s1)C2` [Example 47, N-(1-Cyanocyclopropyl)-9-(5-(difluoromethyl)-1,3,4-thiadiazol-2-yl)-4-(3-methyl-5,6-dihydro-[1,2,4]triazolo[4,3-a]pyrazin-7(8H)-yl)-9H-pyrimido[4,5-b]indole-7-sulfonamide], at least 7.00. The value for `CN(CCN1CCCS1(=O)=O)c1ncnc2c1c1ccc(S(=O)(=O)NC3(C#N)CC3)cc1n2-c1nnc(C(F)F)s1` [Example 72, N-(1-Cyanocyclopropyl)-9-(5-(difluoromethyl)-1,3,4-thiadiazol-2-yl)-4-((2-(1,1-dioxidoisothiazolidin-2-yl)ethyl)(methyl)amino)-9H-pyrimido [4,5-b]indole-7-sulfonamide] was 6.00 to 7.00.

In turn, `CN(C)CC1CN(c2ncnc3c2c2ccc(S(=O)(=O)NC4(C#N)CC4)cc2n3-c2nnc(C(F)F)s2)CCO1` (centres unmarked) [Example 37, N-(1-Cyanocyclopropyl)-9-(5-(difluoromethyl)-1,3,4-thiadiazol-2-yl)-4-(2-((dimethylamino)methyl)morpholino)-9H-pyrimido[4,5-b]indole-7-sulfonamide] gave a pIC50 of at least 7.00. `CN(CC(=O)O)c1ncnc2c1c1ccc(S(=O)(=O)NC3(C#N)CC3)cc1n2-c1nnc(C(F)F)s1` [Example 19, N-(7-(N-(1-Cyanocyclopropyl)sulfamoyl)-9-(5-(difluoromethyl)-1,3,4-thiadiazol-2-yl)-9H-pyrimido[4,5-b]indol-4-yl)-N-methylglycine] had a pIC50 of at least 7.00.

Turning to `CC(C)C(=O)N1CCN(CCOc2ncnc3c2c2ccc(S(=O)(=O)NC4(C#N)CC4)cc2n3-c2nnc(C(F)F)s2)CC1` [Example 4, N-(1-Cyanocyclopropyl)-9-(5-(difluoromethyl)-1,3,4-thiadiazol-2-yl)-4-(2-(4-isobutyrylpiperazin-1-yl)ethoxy)-9H-pyrimido[4,5-b]indole-7-sulfonamide], the pIC50 is at least 7.00. Under `C[C@H]1CN(c2ncnc3c2c2ccc(S(=O)(=O)NC4(C#N)CC4)cc2n3-c2nnc(C(F)F)s2)C[C@H](C)N1` [Example 94, N-(1-Cyanocyclopropyl)-9-(5-(difluoromethyl)-1,3,4-thiadiazol-2-yl)-4-((3S,5S)-3,5-dimethylpiperazin-1-yl)-9H-pyrimido[4,5-b]indole-7-sulfonamide] stands at least 7.00; under `CN(CC1CCOC1)c1ncnc2c1c1ccc(S(=O)(=O)NC3(C#N)CC3)cc1n2-c1nnc(C(F)F)s1` (centres unmarked) [Example 23, N-(1-Cyanocyclopropyl)-9-(5-(difluoromethyl)-1,3,4-thiadiazol-2-yl)-4-(methyl((tetrahydrofuran-3-yl)methyl)amino)-9H-pyrimido[4,5-b]indole-7-sulfonamide], at least 7.00. Under `CN(CC1COCCN1C)c1ncnc2c1c1ccc(S(=O)(=O)NC3(C#N)CC3)cc1n2-c1nnc(C(F)F)s1` (centres unmarked) [Example 64, N-(1-Cyanocyclopropyl)-9-(5-(difluoromethyl)-1,3,4-thiadiazol-2-yl)-4-(methyl((4-methylmorpholin-3-yl)methyl)amino)-9H-pyrimido[4,5-b]indole-7-sulfonamide] stands at least 7.00; under `CN(C)[C@H]1CCCC[C@@H]1N(C)c1ncnc2c1c1ccc(S(=O)(=O)NC3(C#N)CC3)cc1n2-c1nnc(C(F)F)s1` [Example 74, N-(1-Cyanocyclopropyl)-9-(5-(difluoromethyl)-1,3,4-thiadiazol-2-yl)-4-(((1S,2S)-2-(dimethylamino)cyclohexyl)(methyl)amino)-9H-pyrimido[4,5-b]indole-7-sulfonamide], at least 7.00. For the compound `N#CC1(NS(=O)(=O)c2ccc3c4c(O[C@H]5CCOC5)ncnc4n(-c4nnc(C(F)F)s4)c3c2)CC1` [Example 7, (S)-N-(1-Cyanocyclopropyl)-9-(5-(difluoromethyl)-1,3,4-thiadiazol-2-yl)-4-((tetrahydrofuran-3-yl)oxy)-9H-pyrimido[4,5-b]indole-7-sulfonamide], the pIC50 is at least 7.00.
